# Experimental data: US7790700B2, “Derivatives of partially desulphated glycosaminoglycans endowed with antiangiogenic activity and devoid of anticoagulating effect” (Sigma-Tau Industrie Farmaceutiche Riunite S.p.A., priority 2000, dated 2010)
# What was measured:
# [1] = Evaluation of heparin toxicity in Balb/c mice; assay type: in vivo; settings: q2dx5
# Experimental: 20 6-week-old female Balb/c mice weighing 20 g (Harlan), divided into groups by casual randomisation, were treated with heparin sodium, as a reference, and with the compound according to the present invention called ST1514. The treatment schedule was of the q2dx5 type, i.e. 5 total administrations at intervals of 2 days, administering 200 μl/mouse of 50 mg/kg/10 ml and 25 mg/kg/10 ml solutions subcutaneously.
# 48 hours after the last administration of the test substances a blood sample is taken for full blood count and haematological analysis.
# Blood sampling: the mice are placed in a hermetically sealed box, into which is insufflated CO2 in an amount sufficient to stun the animal. Blood is then taken from the retro-orbital plexus of each animal (approximately 1 ml of blood/mouse) which is distributed in amounts of 0.4 ml of blood/mouse in Eppendorf test tubes containing 20 μl of Vister heparin (5000 U/ml) for carrying out the full blood count and haematological analysis; and the same amount of blood is distributed in other Eppendorf test tubes containing 50 μl of 3.8% sodium citrate in order to perform prothrombin time determinations. After taking the blood sample, each animal is sacrificed by cervical dislocation.
# Full blood count: the appliance (Cell Analyzer 580 A, DELCON) is used according to the standard procedure described in the operating manual. The blood sample (25 μl) is taken by the dilutor and brought up to a volume of 10 ml (dil. 1:400) with isotonic solution (PLTA saline, DELCON). From this solution (called solution A), the dilutor automatically takes a sample of 100 μl and brings it up to a volume of 10 ml (dil. 1:100), thus obtaining solution B. To solution A are added 3 drops of Emosol (DELCON) for lysis of the red blood cells. This solution is used for the WBC reading. Solution B, on the other hand, is used for the RBC and platelet (PLT) readings. Each sample is read in duplicate.
# None of the study treatment groups presents significant differences in the numbers of white blood cells as compared to the control group.
# CAM = CAM test in the presence of corticosteroids, Lapierre et al. Table III; cited from earlier work
# [2] = molecular target: T1, FGFR/FGF2/HSPG ternary complex (Homo sapiens, UniProt P09038); assay: Inhibition of FGF2-mediated intercellular adhesion of CHO-K1 and CHO-745flg cells; assay type: cell-based, Chinese hamsters
# T1 construct: FGFR-1 made by transfected HSPG-deficient CHO 745/flg cells; HSPGs on fixed CHO-K1 cells
# T1 sequence (P09038 143-288, one chain of several): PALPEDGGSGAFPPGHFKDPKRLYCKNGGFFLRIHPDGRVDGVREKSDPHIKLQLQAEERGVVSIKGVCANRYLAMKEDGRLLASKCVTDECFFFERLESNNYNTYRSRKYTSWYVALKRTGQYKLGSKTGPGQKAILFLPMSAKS
# Source text: To this end an in-vitro model was designed capable of assessing the interference of the various different heparin derivatives with bFGF binding to its own receptor.
# These latter cells were stably transfected with cDNA for green fluorescent protein and for this reason could be observed under the fluorescence microscope with a combination of filters for the detection of green emission. In brief, the technique is based on the possibility that the two types of cells may interact (form stable bonds) only if FGF is added to the two cell types. In fact, in this case, the heparan sulphates of the CHO-745flg cells will bind to FGF, which in turn will bind to the CHO-K1 cells, establishing a bridge. The binding that occurs is detectable as a result of the green fluorescence emitted by the CHO-745flg cells.
# CHO-K1 cells were seeded at a density of 90,000 cells/cm^2 in 24-well plates. After 24 hours the cells were fixed in 3% glutaraldehyde in PBS for 2 hours at 4° C. and washed with 0.1 M glycine/PBS. On the fixed monolayers CHO 745/flg cells, transfected with FGFR-1, at a density of 50,000 cells/cm^2 in DMEM containing 10 mM EDTA, 30 ng/ml FGF-2 and increasing doses of the test compounds. After 2 hours' incubation at 37° C., the adhering cells were counted under the inverted microscope. The results were expressed as percentage of the number of cells adhering compared to those measured in the absence of the test compounds.
# [3] = system: L6-WT1 cells (rat myoblasts transfected with FGFR-1); assay: Inhibition of DNA synthesis in L6 cells transfected with FGFR-1; assay type: cell-based; settings: test compound 100 μ/ml
# Experimental: L6-WT1 cells (rat myoblasts transfected with FGFR-1) were seeded at a density of 25,000 cells/cm^2 in 48-well plates in DMEM+ 10% FCS. After 24 hours the cells were washed with serum-free medium and incubated for 48 hours with DMEM+ 0.5% FCS. The cells were then incubated for 16 hours with FGF-2 at the concentrations of 15 and 30 ng/ml in the presence or absence of the test compounds (all at 100 μ/ml). At the end of the incubation 3H-thymidine (0.25 μCi/well) was added without changing the medium. After 6 hours, precipitable TCA was measured. Each experimental point is the mean of 3 determinations.
# BAEC cells = assay: Test of cell proliferation in BAEC; assay type: cell-based, bovine; settings: 30 ng/ml FGF-2, 3 days, crystal-violet
# Experimental: BAEC cells at the 7th pass were seeded at a density of 2,500 cells/cm^2 in 96-well in EBM medium without bovine brain extract and hEGF. To this medium were added 30 ng/ml of FGF-2 and each of the test compounds at 5 concentrations ranging from 10 ng/ml to 100 μg/ml. After 3 days the cells were fixed and stained with crystal-violet and the optical density was determined by means of an ELISA microplate reader. Each experimental point was done in quadruplicate and the ID50 was calculated.
# foetal BAEC GM 7373 = assay: Test of cell proliferation in foetal BAEC GM 7373; assay type: cell-based, bovine; settings: GM7373, 10 ng/ml FGF-2, cell count
# Experimental: GM7373 cells were seeded at a density of 70,000 cells/cm^2 in 96-well plates in MEM+ 10% FCS medium. After 24 hours, the cells were washed with serum-free medium and treated with 10 ng/ml of FGF-2 in medium containing 0.4% FCS. After 8 hours, the test compounds were added to the medium at 5 concentrations ranging from 10 ng/ml to 100 μg/ml. After a further 16 hours, the cells were trypsinised and counted in a Burker chamber. The ID50 was calculated for each compound and the results are the means of 2 experiments in triplicate.
# [4] = system: chick embryo chorioallantoic membrane; assay: Angiostatic activity on CAM model (gelatin sponge); assay type: in vivo
# Experimental: For the study of angiogenesis the model used was the chick embryo chorioallantoic membrane model (Ribatti e al. Int. J. Dev. Biol., 40, 1189 (1996)).
# 300 embryonated hens' eggs were incubated at 37° C. in constant humidity conditions. On the 3rd day of incubation, after aspirating 2-3 ml of albumen from the acute pole of the egg so as to detach the CAM from the shell, a window was cut with scissors in the shell. The vessels underlying the CAM were thus exposed. The window was closed with a transparent glass panel and the eggs were put back into the incubator. On the 8th day of incubation, in sterile conditions, the CAMs were treated according to the protocol described below using a technique developed recently (Ribatti et al. J. Vasc. Res. 34, 455 (1997)), which involves the use of sterile gelatin sponges measuring 1 mm^2 in size. […] The sponges were first rested on the surface of the CAM, and then 3 μl of solution of the test substance were pipetted onto the surface of the sponge. The CAMs were examined daily using a Zeiss SR stereomicroscope equipped with a photographic device. The experiments were discontinued on the 12th day of incubation, when an overall assessment of the angiogenic activity of the molecules was carried out, expressed as percentage inhibition in relation to the number of experiments initiated and completed (Table 9). In addition, for compound ST1514, assayed at the concentration of 100 μg/embryo, a macroscopic quantitative evaluation of the angiostatic activity was also carried out according to the technique proposed by Brooks et al. (Science, 264, 569, (1994)), counting the number of vessels surrounding the sponge. The number of vessels was compared with that of the control sponges treated with PBS (vehicle of the test compound) and with FGF-2 (positive control).
# Endothelial Cell = assay: Endothelial cell proliferation (Table 11); assay type: cell-based; settings: Table 11, endothelial cell proliferation
# [5] = background table, structure/antimetastatic activity; cited from earlier work
# [6] = 50 mg/kg and 25 mg/kg subcutaneously
substance,measurement,setting,value
heparin sodium,platelets compared to the control group,[1]; 25 mg/kg subcutaneously,significant platelet deficiency
same,haematoma at the inoculum site,[1]; [6],marked haematoma at the inoculum site
same,liver at autopsy,[1]; [6],livers with abnormal characteristics
same,red blood cells compared to the control group,"[1]; 50 mg/kg and 25 mg/kg subcutaneously, 48 hours after last administration",reduction in red blood cells
2-O-desulfated heparin,antiangiogenic activity relative to heparin (in words),CAM,partly maintained the antiangiogenic activity of heparin
Heparin,Inhibition (ID50) of intercellular adhesion,"[2]; 30 ng/ml FGF-2, 2 hours at 37° C., 6 concentrations 1 ng/ml to 100 μg/ml",100
same,"Cell-Cell Adh. (ID50, ng/mL)","[2]; Table 11, FGF2-mediated cell-cell adhesion",100 ng/mL
same,"ID50, FGF2-mediated cell-cell adhesion test",[2]; text b166,0.1 µg/mL
same,Incorporation of 3H-thymidine (% vs. control),[3]; FGF-2 15 ng/ml,50 % vs. control
same,Incorporation of 3H-thymidine (% vs. control),[3]; FGF-2 30 ng/ml,74 % vs. control
same,Inhibition (ID50) of cell proliferation,BAEC cells,100 µg/mL
same,Inhibition (ID50) of cell proliferation,foetal BAEC GM 7373,2 µg/mL
same,CAM (% inhibition),[4]; 100 μg/embryo,0%
same,angiostatic activity on CAM (in words),[4]; remark below Tables 9 and 10,no activity
same,"Cell Prolif. (ID50, ng/mL)",Endothelial Cell,2 000 ng/mL
same,% inhibition (antimetastatic activity),[5],97%
"FGF-2: basic fibroblast growth factor, positive control with potent angiogenic activity on the CAM",N. vessels at sponge/CAM interface,"[4]; 1 μg/embryo, positive control, macroscopic quantitative evaluation (Brooks)",50 + 4
